pEC50: −log10 of the molar value.
What was measured:
[1] = MTT-based cytotoxicity assay; conditions: human, C8166 cells, concentration that causes 50% reduction in total C8166 cell number, means of two separate experiments, read-out: CC50 (50% cytotoxic concentration)
Method: (§1) Cell line (C8166) and the laboratory-derived virus (HIV-1 IIIB) were obtained from the MRC, AIDS Reagent Project, London, UK. C8166 was maintained in RPMI-1640 supplemented with 10% heat-inactivated new born calf serum (Gibco, USA). The cells used in all experiments were in log-phase growth. The 50% HIV-1 IIIB tissue culture infectious dose (TCID50) in C8166 cells was determined and calculated by the Reed and Muench method. Virus stocks were stored in small aliquots at −70 °C [11].
Cellular toxicity of compounds 4a–f and 6 on C8166 cells was assessed by the MTT method as described previously. Briefly, cells were seeded on 96-well microtiter plate in the absence or presence of various concentrations of compounds in triplicate and incubated at 37 °C in a humid atmosphere of 5% CO2 for 3 days. The supernatants were discarded and MTT reagent (5 mg/mL in PBS) was added to each wells, then incubated for 4 h, 100 μL of 50% DMF-20% SDS was added. After the formazan was dissolved completely, the plates were read on a Bio-TekElx800 ELISA reader at 595/630 nm. The cytotoxic concentration that caused the reduction of viable C8166 cells by 50% (CC50) was determined from dose-response curve.

HIV-1 IIIB = experiment: Syncytia assay (anti-HIV-1 activity in acutely infected C8166 cells); type: cell-based; conditions: Human immunodeficiency virus 1, 72 h; concentration that reduces syncytia formation by 50%; C8166 cells infected with HIV-1 IIIB, M.O.I 0.06, 3 days; means of two separate experiments; read-out: EC50 (50% effective concentration)
Method: as §1
In the presence of 100 μL of various concentrations of compounds, C8166 cells (4 × 10^5/mL) were infected with virus HIV-1IIIB at a multiplicity of infection (M.O.I) of 0.06. The final volume per well was 200 μL. Control assays were performed without the testing compounds in HIV-1IIIB infected and uninfected cultures. After 3 days of culture, the cytopathic effect (CPE) was measured by counting the number of syncytia. Percentage inhibition of syncytia formation was calculated and 50% effective concentration (EC50) was calculated. AZT (Sigma, USA) was used as a positive control. Therapeutic index (TI) = CC50/EC50 [13].

SMILES | pEC50 (HIV-1 IIIB) | melting point [°C] | CC50 at 3 days [1] [µM]
Cc1cn([C@H]2C[C@H](N=[N+]=[N-])[C@@H](CO)O2)c(=O)[nH]c1=O [AZT, 3'-azido-3'-deoxythymidine, reference compound] | 7.92 | – | 4260
Cc1ccc2c(C(=O)CN3CCCCC3)cn(S(=O)(=O)c3ccccc3)c2c1 [Compound 4a, N-Phenylsulfonyl-3-[2-piperidinylethanone]-6-methylindole] | 4.48 | 132 to 134 | > 504
Cc1ccc2c(C(=O)CN3CCCC3)cn(S(=O)(=O)c3ccccc3)c2c1 [Compound 4c, N-Phenylsulfonyl-3-[2-pyrrolidinoethanone]-6-methylindole] | 3.97 | 124 to 126 | 226
Cc1ccc2c(C(=O)CN(C(C)C)C(C)C)cn(S(=O)(=O)c3ccccc3)c2c1 [Compound 4d, N-Phenylsulfonyl-3-[2-diisopropylaminoethanone]-6-methylindole] | 4.75 | – | 220

The next lines start with results.

pEC50 (HIV-1 IIIB) | melting point [°C] | SMILES | CC50 at 3 days [1] [µM]
4.25 | 174 to 176 | Cc1ccc2c(C(=O)CN3CCOCC3)cn(S(=O)(=O)c3ccccc3)c2c1 [Compound 4b, N-Phenylsulfonyl-3-[2-morpholinoethanone]-6-methylindole] | > 502
4.52 | – | CCCCNCC(=O)c1cn(S(=O)(=O)c2ccccc2)c2cc(C)ccc12 [Compound 4e, N-Phenylsulfonyl-3-[2-butylaminoethanone]-6-methylindole] | 43.8
5.03 | – | CCc1ccc(S(=O)(=O)n2cc(C(=O)CN3CCOCC3)c3ccc(C)cc32)cc1 [Compound 4f, N-(p-Ethyl)phenylsulfonyl-3-[2-morpholinoethanone]-6-methylindole] | > 469
5.34 | 122 to 124 | CCc1ccc(S(=O)(=O)n2cc(C(=O)CSc3nnc(-c4ccccc4)o3)c3ccc(C)cc32)cc1 [Compound 6, N-(p-Ethyl)phenylsulfonyl-3-[2-(5-phenyl-1,3,4-oxadiazole-2-yl-thio)ethanone]-6-methylindole] | 309

Reference: paper PMC4491657, “Design and Synthesis of Novel N-Arylsulfonyl-3-(2-yl-ethanone)-6-methylindole Derivatives as Inhibitors of HIV-1 Replication” (Pharmaceuticals, 2015)
